Measured values published in patent US20220098203A1 (priority 2018, published 2022).

Target: T1, MAT2A homodimer (Homo sapiens, UniProt P31153)
T1 construct: inferred from the Ni sepharose purification and imidazole elution; made in house; host or cells: SF9 insect cells, recombinant baculovirus (Bac to Bac, pFASTBAC1)
Assay: MAT2A biochemical assay (liberated phosphate, PiColorLock Gold)
Conditions: Table 5a; MAT2A biochemical assay; read-out: Enzyme Inhibition
Protocol: Mat2A protein was expressed by recombinant baculovirus in SF9 infected cells using the Bac to Bac system cloned into the pFASTBAC1 vector (Invitrogen, Carlsbad, Calif.). Recombinant MAT2A was isolated from the cell lysate of 150 g of infected cells using HP Ni sepharose column chromatography. Recombinant MAT2A homodimer was eluted with 250 and 500 mM imidazole, and fractions containing MAT2A were identified by sodium dodecyl sulfate polyacrylamide gel electrophoresis and pooled.
Test compound was prepared in 100% dimethyl sulfoxide (DMSO) at 50× the desired final concentration. A 1 μL volume of compound dilution was added to 40 μL of enzyme dilution and the mixture was allowed to equilibrate for 60 minutes at 25° C. The enzymatic assay was initiated by the addition of 10 μL of substrate mix (500 μM ATP, pH 7.0, 400 μM L-methionine in 1× assay buffer), and the mixture was incubated for a further 60 minutes at 25° C. The reaction was halted and the liberated phosphate released by the enzyme in stoichiometric amounts by the production of S-adenosyl methionine (SAM) was measured using the PiColorLock Gold kit (Innova Biosciences, UK). Absolute product amounts were determined by comparison to a standard curve of potassium phosphate buffer, pH 8.0.

T1 sequence (P31153 whole entry): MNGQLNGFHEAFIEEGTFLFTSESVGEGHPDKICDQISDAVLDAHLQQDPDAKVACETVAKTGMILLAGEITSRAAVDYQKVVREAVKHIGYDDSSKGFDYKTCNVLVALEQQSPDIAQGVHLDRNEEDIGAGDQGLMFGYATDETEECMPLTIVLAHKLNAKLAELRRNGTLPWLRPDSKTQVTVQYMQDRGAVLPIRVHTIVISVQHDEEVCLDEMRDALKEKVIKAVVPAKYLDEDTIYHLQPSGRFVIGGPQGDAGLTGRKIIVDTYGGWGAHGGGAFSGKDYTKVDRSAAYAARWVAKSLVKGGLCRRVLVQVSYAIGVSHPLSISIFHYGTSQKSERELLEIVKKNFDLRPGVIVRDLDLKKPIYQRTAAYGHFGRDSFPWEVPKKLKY

Structure (SMILES)	IC50 [µM]
COc1ccc(N2Cc3cnc(NCC(F)(F)F)nc3N(c3ccc(SC)cc3)C2=O)cc1 [Example 198, 3-(4-methoxyphenyl)-1-(4-(methylthio)phenyl)-7-((2,2,2-trifluoroethyl)amino)-3,4-dihydropyrimido[4,5-d]pyrimidin-2(1H)-one]	< 0.1
CCC(=O)c1ccc(N2C(=O)N(c3ccc(OC)cc3)Cc3cnc(NCC(F)(F)F)nc32)cc1 [Example 199, 3-(4-methoxyphenyl)-1-(4-propionylphenyl)-7-((2,2,2-trifluoroethyl)amino)-3,4-dihydropyrimido[4,5-d]pyrimidin-2(1H)-one]	0.1 to 1
COc1ccc(N2Cc3cnc(NCC(F)(F)F)nc3N(c3cc4ccccc4s3)C2=O)cc1 [Example 200, 1-(benzo[b]thiophen-2-yl)-3-(4-methoxyphenyl)-7-((2,2,2-trifluoroethyl)amino)-3,4-dihydropyrimido[4,5-d]pyrimidin-2(1H)-one]	< 0.1
COc1ccc(N2Cc3cnc(NCC(F)(F)F)nc3N(c3ccc(N(C)C)cc3)C2=O)cc1 [Example 201, 1-(4-(dimethylamino)phenyl)-3-(4-methoxyphenyl)-7-((2,2,2-trifluoroethyl)amino)-3,4-dihydropyrimido[4,5-d]pyrimidin-2(1H)-one]	< 0.1
COC(=O)c1ccc(N2C(=O)N(c3ccc(OC)cc3)Cc3cnc(NCC(F)(F)F)nc32)cc1 [Example 203, methyl 4-(3-(4-methoxyphenyl)-2-oxo-7-((2,2,2-trifluoroethyl)amino)-3,4-dihydropyrimido[4,5-d]pyrimidin-1(2H)-yl)benzoate]	0.1 to 1
COc1ccc(N2Cc3cnc(NCC(F)(F)F)nc3N(c3ccc(N)cc3)C2=O)cc1 [Example 204, 1-(4-aminophenyl)-3-(4-methoxyphenyl)-7-((2,2,2-trifluoroethyl)amino)-3,4-dihydropyrimido[4,5-d]pyrimidin-2(1H)-one]	0.1 to 1
COC(=O)Cc1ccc(N2C(=O)N(c3ccc(OC)cc3)Cc3cnc(NCC(F)(F)F)nc32)cc1 [Example 205, methyl 2-(4-(3-(4-methoxyphenyl)-2-oxo-7-((2,2,2-trifluoroethyl)amino)-3,4-dihydropyrimido[4,5-d]pyrimidin-1(2H)-yl)phenyl)acetate]	1 to 10
COc1ccc(N2Cc3cnc(NCC(F)(F)F)nc3N(c3ccc(-c4ccsn4)cc3)C2=O)cc1 [Example 207, 1-(4-(isothiazol-3-yl)phenyl)-3-(4-methoxyphenyl)-7-((2,2,2-trifluoroethyl)amino)-3,4-dihydropyrimido[4,5-d]pyrimidin-2(1H)-one]	1 to 10
COc1ccc(N2Cc3cnc(NCC(F)(F)F)nc3N(c3cccc(OC)c3)C2=O)cc1 [Example 208, 1-(3-methoxyphenyl)-3-(4-methoxyphenyl)-7-((2,2,2-trifluoroethyl)amino)-3,4-dihydropyrimido[4,5-d]pyrimidin-2(1H)-one]	0.1 to 1
COCc1ccc(N2C(=O)N(c3ccc(OC)cc3)Cc3cnc(NCC(F)(F)F)nc32)cc1 [Example 209, 1-(4-(methoxymethyl)phenyl)-3-(4-methoxyphenyl)-7-((2,2,2-trifluoroethyl)amino)-3,4-dihydropyrimido[4,5-d]pyrimidin-2(1H)-one]	0.1 to 1
COc1ccc(N2Cc3cnc(NCC(F)(F)F)nc3N(c3ccc(-c4cscn4)cc3)C2=O)cc1 [Example 210, 3-(4-methoxyphenyl)-1-(4-(thiazol-4-yl)phenyl)-7-((2,2,2-trifluoroethyl)amino)-3,4-dihydropyrimido[4,5-d]pyrimidin-2(1H)-one]	0.1 to 1
COc1ccc(N2Cc3cnc(NCC(F)(F)F)nc3N(c3ccc(-c4cn[nH]c4)cc3)C2=O)cc1 [Example 211, 1-(4-(1H-pyrazol-4-yl)phenyl)-3-(4-methoxyphenyl)-7-((2,2,2-trifluoroethyl)amino)-3,4-dihydropyrimido[4,5-d]pyrimidin-2(1H)-one]	0.1 to 1
COc1ccc(N2Cc3cnc(NCC(F)(F)F)nc3N(c3ccc(C(C)C)cc3)C2=O)cc1 [Example 212, 1-(4-isopropylphenyl)-3-(4-methoxyphenyl)-7-((2,2,2-trifluoroethyl)amino)-3,4-dihydropyrimido[4,5-d]pyrimidin-2(1H)-one]	0.1 to 1
O=C1N(c2ccc3nccn3c2)Cc2cnc(NCC(F)(F)F)nc2N1c1ccc(C2CC2)cc1 [Example 213, 1-(4-cyclopropylphenyl)-3-(imidazo[1,2-a]pyridin-6-yl)-7-((2,2,2-trifluoroethyl)amino)-3,4-dihydropyrimido[4,5-d]pyrimidin-2(1H)-one]	< 0.1
Cn1cc(N2Cc3cnc(NCC(F)(F)F)nc3N(c3ccc(-c4nc[nH]n4)cc3)C2=O)ccc1=O [Example 221, 1-(4-(1H-1,2,4-triazol-3-yl)phenyl)-3-(1-methyl-6-oxo-1dihydropyridin-3-yl)-7-((2,2,2-trifluoroethyl)amino)-3,4-dihydropyrimido[4,5-d]pyrimidin-2(1H)-one]	0.1 to 1
O=C1N(c2ccc3nccn3c2)Cc2cnc(NCC(F)(F)F)nc2N1c1ccc(-c2nc[nH]n2)cc1 [Example 222, 1-(4-(1H-1,2,4-triazol-3-yl)phenyl)-3-(imidazo[1,2-a]pyridin-6-yl)-7-((2,2,2-trifluoroethyl)amino)-3,4-dihydropyrimido[4,5-d]pyrimidin-2(1H)-one]	< 0.1
O=C1N(c2ccnnc2)Cc2cnc(NCC(F)(F)F)nc2N1c1ccc(OC(F)F)cc1 [Example 224, 1-(4-(difluoromethoxy)phenyl)-3-(pyridazin-4-yl)-7-((2,2,2-trifluoroethyl)amino)-3,4-dihydropyrimido[4,5-d]pyrimidin-2(1H)-one]	1 to 10
O=C1N(c2ccc3nccn3c2)Cc2cnc(NCC(F)(F)F)nc2N1c1ccc(OC(F)F)cc1 [Example 225, 1-(4-(difluoromethoxy)phenyl)-3-(imidazo[1,2-a]pyridin-6-yl)-7-((2,2,2-trifluoroethyl)amino)-3,4-dihydropyrimido[4,5-d]pyrimidin-2(1H)-one]	< 0.1
O=C1N(c2ccc3ncccc3c2)Cc2cnc(NCC(F)(F)F)nc2N1c1ccc(C2CC2)cc1 [Example 226, 1-(4-cyclopropylphenyl)-3-(quinolin-6-yl)-7-((2,2,2-trifluoroethyl)amino)-3,4-dihydropyrimido[4,5-d]pyrimidin-2(1H)-one]	< 0.1
O=C1N(c2ccc3ncccc3c2)Cc2cnc(NCC(F)(F)F)nc2N1c1ccc(OC(F)F)cc1 [Example 227, 1-(4-(difluoromethoxy)phenyl)-3-(quinolin-6-yl)-7-((2,2,2-trifluoroethyl)amino)-3,4-dihydropyrimido[4,5-d]pyrimidin-2(1H)-one]	0.1 to 1
COc1ccc(N2C(=O)N(c3ccc4nncn4c3)Cc3cnc(NCC(F)(F)F)nc32)cc1 [Example 229, 3-([1,2,4]triazolo[4,3-a]pyridin-6-yl)-1-(4-methoxyphenyl)-7-((2,2,2-trifluoroethyl)amino)-3,4-dihydropyrimido[4,5-d]pyrimidin-2(1H)-one]	< 0.1
COc1ccc(N2C(=O)N(c3ccncc3)Cc3cnc(NCC(F)(F)F)nc32)cc1 [Example 230, 1-(4-methoxyphenyl)-3-(pyridin-4-yl)-7-((2,2,2-trifluoroethyl)amino)-3,4-dihydropyrimido[4,5-d]pyrimidin-2(1H)-one]	< 0.1
COc1ccc(N2C(=O)N(c3ccc(OC)cn3)Cc3cnc(NCC(F)(F)F)nc32)cc1 [Example 238, 1-(4-methoxyphenyl)-3-(5-methoxypyridin-2-yl)-7-((2,2,2-trifluoroethyl)amino)-3,4-dihydropyrimido[4,5-d]pyrimidin-2(1H)-one]	0.1 to 1
COc1ccc(N2C(=O)N(c3ccc(OC)nc3)Cc3cnc(NCC(F)(F)F)nc32)cc1 [Example 239, 1-(4-methoxyphenyl)-3-(6-methoxypyridin-3-yl)-7-((2,2,2-trifluoroethyl)amino)-3,4-dihydropyrimido[4,5-d]pyrimidin-2(1H)-one]	0.1 to 1
COc1ccc(N2Cc3cnc(NCC(F)(F)F)nc3N(c3ccc4ncccc4c3)C2=O)cc1 [Example 240]	0.1 to 1
COc1ccc(N2Cc3cnc(NCC(F)(F)F)nc3N(c3ccc(C)cc3)C2=O)cc1 [Example 243, 3-(4-methoxyphenyl)-1-(p-tolyl)-7-((2,2,2-trifluoroethyl)amino)-3,4-dihydropyrimido[4,5-d]pyrimidin-2(1H)-one]	0.1 to 1
COc1ccc(N2Cc3cnc(SC)nc3N(c3ccc(C)cc3)C2=O)cc1 [Example 244, 3-(4-methoxyphenyl)-7-(methylthio)-1-(p-tolyl)-3,4-dihydropyrimido[4,5-d]pyrimidin-2(1H)-one]	1 to 10
COc1ccc(N2Cc3cnc(NCC(F)(F)F)nc3N(c3ccc(Cl)c(Cl)c3)C2=O)cc1 [Example 245, 1-(3,4-dichlorophenyl)-3-(4-methoxyphenyl)-7-((2,2,2-trifluoroethyl)amino)-3,4-dihydropyrimido[4,5-d]pyrimidin-2(1H)-one]	1 to 10
COc1ccc(N2C(=O)N(c3ccc4nn(C)cc4c3)Cc3cnc(NC4CCCCC4)nc32)cc1 [Example 248, 7-(cyclohexylamino)-1-(4-methoxyphenyl)-3-(2-methyl-2H-indazol-5-yl)-3,4-dihydropyrimido[4,5-d]pyrimidin-2(1H)-one]	1 to 10
